What was measured:
Aβtotal [1] = assay: γ-secretase-modulating activity, Method 1: Aβtotal sandwich ELISA in supernatant of SKNBE2 cells carrying APP 695-wild type; type: cell-based; details: Table 3a, 18 h, averaged IC50 values
Method: Pharmacology A) Screening of the Compounds of the Invention for γ-Secretase-Modulating Activity A1) Method 1
Screening was carried out using SKNBE2 cells carrying the APP 695-wild type, grown in Dulbecco's Modified Eagle's Medium/Nutrient mixture F-12 (DMEM/NUT-mix F-12) (HAM) provided by Gibco (cat no. 31330-38) containing 5% Serum/Fe supplemented with 1% non-essential amino acids. Cells were grown to near confluency.
The screening was performed using the assay as described in Citron et al (1997) Nature Medicine 3: 67. Briefly, cells were plated in a 96-well plate at about 10^5 cells/ml one day prior to addition of compounds. Compounds were added to the cells in Ultraculture (Lonza, BE12-725F) supplemented with 1% glutamine (Invitrogen, 25030-024) for 18 h. The media were assayed by two sandwich ELISAs, for Aβ42 and Aβtotal. Toxicity of the compounds was assayed by WST-1 cell proliferation reagent (Roche, 1 644 807) according to the manufacturer's protocol.
To quantify the amount of Aβtotal in the cell supernatant, samples and standards were added to a 6E10-coated plate. The plate was allowed to incubate overnight at 4° C. in order to allow formation of the antibody-amyloid complex. Following this incubation and subsequent wash steps a selective anti-Aβ-antibody conjugate (biotinylated 4G8) was added and incubated for a minimum of 1 h in order to allow formation of the antibody-Amyloid-antibody-complex. After incubation and appropriate wash steps, a Streptavidine-Peroxidase-Conjugate was added, followed 30 minutes later by an addition of Quanta Blu fluorogenic peroxidase substrate according to the manufacturer's instructions (Pierce Corp., Rockford, Ill.).

Aβ42 = assay: In vivo efficacy, Method 1: brain soluble Aβ42 lowering 4 h after a single oral dose, ELISA (Table 4a); design: species or system mouse; details: dose 30 mg/kg oral dosing
Text: (§1) To determine whether acute administration of an Aβ42 lowering agent would reduce Aβ42 levels in vivo, non-transgenic rodents, e.g. mice or rats were used. Alternatively, two to three month old Tg2576 mice expressing APP695 containing the “Swedish” variant can be used or a transgenic mouse model developed by Dr. Fred Van Leuven (K.U. Leuven, Belgium) and co-workers, with neuron-specific expression of a clinical mutant of the human amyloid precursor protein [V717I] (Moechars et al., 1999 J. Biol. Chem. 274, 6483). Young transgenic mice have high levels of Aβ in the brain but no detectable Aβ deposition. At approximately 6-8 months of age, the transgenic mice start to display spontaneous, progressive accumulation of β-amyloid (Aβ) in the brain, eventually resulting in amyloid plaques within the subiculum, hippocampus and cortex. Animals treated with the Aβ42 lowering agent were examined and compared to those untreated or treated with vehicle and brain levels of soluble Aβ42 and total Aβ would be quantitated by standard techniques, for example, using ELISA. Treatment periods varied from hours (h) to days and were adjusted based on the results of the Aβ42 lowering once a time course of onset of effect could be established.
(§2) A typical protocol for measuring Aβ42 lowering in vivo is shown but it is only one of many variations that could be used to optimize the levels of detectable Aβ. For example, Aβ42 lowering compounds were formulated in 20% of Captisol® (a sulfobutyl ether of β-cyclodextrin) in water or 20% hydroxypropyl cyclodextrin. The Aβ42 lowering agents were administered as a single oral dose or by any acceptable route of administration to overnight fasted animals. After 4 h, the animals were sacrificed and Aβ42 levels were analysed.
(§3) Blood was collected by decapitation and exsanguinations in EDTA-treated collection tubes. Blood was centrifuged at 1900 g for 10 minutes (min) at 4° C. and the plasma recovered and flash frozen for later analysis. The brain was removed from the cranium and hindbrain. The cerebellum was removed and the left and right hemisphere were separated. The left hemisphere was stored at −18° C. for quantitative analysis of test compound levels. The right hemisphere was rinsed with phosphate-buffered saline (PBS) buffer and immediately frozen on dry ice and stored at −80° C. until homogenization for biochemical assays.
(§4) Mouse brains were resuspended in 10 volumes of 0.4% DEA (diethylamine)/50 mM NaCl pH 10 (for non-transgenic animals) or 0.1% 3-[(3-cholamidopropyl)-dimethyl-ammonio]-1-propanesulfonate (CHAPS) in tris buffered saline (TBS) (for transgenic animals) containing protease inhibitors (Roche-11873580001 or 04693159001) per gram of tissue, e.g. for 0.158 g brain, add 1.58 ml of 0.4% DEA. All samples were sonicated for 30 seconds on ice at 20% power output (pulse mode). Homogenates were centrifuged at 221.300×g for 50 min. The resulting high speed supernatants were then transferred to fresh tubes and were optionally further purified before the next step. A portion of the supernatant was neutralized with 10% 0.5 M Tris-HCl and this was used to quantify Aβtotal.
The obtained supernatants were purified with Water Oasis HLB reverse phase columns (Waters Corp., Milford, Mass.) to remove non-specific immunoreactive material from the brain lysates prior subsequent Aβ detection. Using a vacuum manifold, all solutions were passed through the columns at a rate of approximately 1 ml per min, so the vacuum pressure was adjusted accordingly throughout the procedure. Columns were preconditioned with 1 ml of 100% MeOH, before equilibration with 1 ml of H2O, Non-neutralized brain lysates were loaded onto the columns. The loaded samples were then washed twice with the first wash performed with 1 ml of 5% MeOH, and the second wash with 1 ml of 30% MeOH. Finally, the Aβ was eluted from the columns and into 100×30 mm glass tubes, with a solution of 90% MeOH with 2% NH4OH. […]

Aβtotal [2] = assay: In vivo efficacy, Method 1: brain soluble Aβtotal lowering 4 h after a single oral dose, ELISA (Table 4a); design: species or system mouse; details: dose 30 mg/kg oral dosing
Text: as §1, §2, §3, §4
To quantify the amount of Aβ42 in the soluble fraction of the brain homogenates, commercially available Enzyme-Linked-Immunosorbent-Assay (ELISA) kits were used (e.g. Innotest® β-Amyloid(1-42), Innogenetics N.V., Ghent, Belgium). The Aβ42 ELISA was performed using the plate provided with the kit only. Briefly, the standards (a dilution of synthetic Aβ1-42) were prepared in 1.5 ml Eppendorf tube in Ultraculture, with final concentrations ranging from 25000 to 1.5 pg/ml. Samples, standards and blanks (60 μl) were added to the anti-Aβ42-coated plate (the capture antibody selectively recognizes the C-terminal end of the antigen). The plate was allowed to incubate overnight at 4° C. in order to allow formation of the antibody-amyloid complex. […]

IC50 (Aβtotal [1]; Homo sapiens) [µM]	IC50 (Aβtotal [1]) [µM]	Compound	Aβ42 (% Ctrl) _Mean (Aβ42) [% Ctrl]	Aβtotal (% Ctrl) _Mean (Aβtotal [2]) [% Ctrl]
> 3		COc1cc(-c2nc(C)c(-c3ccccc3)[nH]2)ccc1-n1cnc(C)c1 [Compound 11]	4	−4
	11.5	COc1cc(-c2nc(Nc3ccc(F)cc3C(F)(F)F)n(C)n2)ccc1-n1cnc(C)c1 [Compound 15]	42	3
> 30		COc1cc(-c2nc(-c3ccccc3)n(C)n2)ccc1-n1cnc(C)c1 [Compound 9]	24	0
		COc1cc(-c2nc(Nc3cccc(C(F)(F)F)c3)n(C)n2)ccc1-n1cnc(C)c1 [Compound 146]	27	14

From patent publication US8946266B2, “Substituted triazole and imidazole derivatives as gamma secretase modulators” (Janssen Pharmaceuticals, Inc., priority 2009, dated 2015)
